Key:
[1] = Solubility issue noted in the binding experiments; assay type: physicochemical; conditions: in binding assay
Procedure: The data were fitted to a one-site competition model via nonlinear regression and the IC50 values were determined as described in Section 3.4.

human GnRHR I = molecular target: T1, human GnRHR I (Homo sapiens, UniProt P30968); assay: Competitive radioligand binding (125I-DTyr6-His5-GnRH) on membranes from HEK 293 cells stably expressing GnRHR I; conditions: competition with 125I-DTyr6-His5-GnRH, HEK 293 membranes, 4 °C 16-19 h, one-site model; read-out: apparent binding affinity (IC50)
T1 construct: expressed in transfected cells
T1 sequence (P30968 1-328): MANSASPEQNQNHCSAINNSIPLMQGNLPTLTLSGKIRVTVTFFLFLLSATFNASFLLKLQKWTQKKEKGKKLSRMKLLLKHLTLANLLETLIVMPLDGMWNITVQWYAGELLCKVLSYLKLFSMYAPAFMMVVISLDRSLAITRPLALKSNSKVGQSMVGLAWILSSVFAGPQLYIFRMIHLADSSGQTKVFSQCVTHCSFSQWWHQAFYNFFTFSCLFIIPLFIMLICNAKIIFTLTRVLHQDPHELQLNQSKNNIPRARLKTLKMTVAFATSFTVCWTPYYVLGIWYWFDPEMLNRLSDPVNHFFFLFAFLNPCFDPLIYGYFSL

[2] = molecular target: E. coli Trx1 / E. coli TrxR (thioredoxin system) (Escherichia coli, UniProt P0AA25); assay: Disulfide bond reduction assay by EcoTrx1 (NADPH absorbance at 340 nm); assay type: biochemical; conditions: for Absorbance Asample1 / Absorbance Asample2 / Absorbance Average1, 2: A340, with TrxR
Procedure: The assay employed was based on changes in the absorbance at 340 nm from the oxidation of NADPH using a modified version of the protocol laid out in [90]. Briefly, the decrease in A340 was measured in 96-well plates containing 100 μL of 200 mM potassium phosphate pH 7.4, 1 mM EDTA, 0.1 mg/mL BSA, 200 μM NADPH, 2 μM E. coli Trx1 and 10 nM E. coli TrxR for 5 min at 25 °C with insulin at a final concentration of 0.067 mM (0.2 mM disulfides) (see Table S2). The reduction of con7 was measured at a final concentration of 0.2 mM (see Table S3). Blanks were samples without EcoTrxR.
Figure 4 Reduction of (A) con7 and (B) insulin by EcoTrx1. The assay mixture contains 200 mM potassium phosphate pH 7.4, 1 mM EDTA, 0.1 mg/mL BSA, 200 μM NADPH, 2 μM Escherichia coli Trx1, 10 nM E. coli TrxR, (A) 0.2 mM con7 or (B) 0.067 mM (0.2 mM disulfides) insulin. The reaction was carried out at 25 °C by monitoring the decrease of NADPH absorbance at 340 nm for (A) con7 in the absence ( [drawing 1] ) or presence of TrxR ( [drawing 2] ) and (B) insulin in the absence ( [drawing 3] ) or presence of TrxR ( [drawing 4] ).

Chain of E. coli Trx1 / E. coli TrxR (thioredoxin system) (P0AA25 2-109): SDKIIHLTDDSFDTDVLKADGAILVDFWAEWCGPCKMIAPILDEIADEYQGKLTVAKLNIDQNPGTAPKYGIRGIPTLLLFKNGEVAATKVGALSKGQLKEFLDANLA

## CCNC(=O)[C@@H]1CCCN1C(=O)[C@H](CCCNC(=N)N)NC(=O)[C@H](CC(C)C)NC(=O)[C@@H](CSSCC(=O)NCCCCNc1ccc(O)c2c1C(=O)c1ccccc1C2=O)NC(=O)[C@H](Cc1ccc(O)cc1)NC(=O)[C@H](CO)NC(=O)[C@H](Cc1c[nH]c2ccccc12)NC(=O)[C@H](Cc1c[nH]cn1)NC(=O)[C@@H]1CCC(=O)N1 [con4]
[1]
  solubility: solubility issues

## CCNC(=O)[C@@H]1CCCN1C(=O)[C@H](CCCNC(=N)N)NC(=O)[C@H](CC(C)C)NC(=O)[C@@H](CCCCNC(=O)CCCCCNC(=O)CCSSCC(=O)OCCNCCNc1ccc(NCCNCCO)c2c1C(=O)c1c(O)ccc(O)c1C2=O)NC(=O)[C@H](Cc1ccc(O)cc1)NC(=O)[C@H](CO)NC(=O)[C@H](Cc1c[nH]c2ccccc12)NC(=O)[C@H](Cc1c[nH]cn1)NC(=O)[C@@H]1CCC(=O)N1 [con7]
Human GnRHR I
  IC50: 60 pM
[2]; 0.2 mM con7 vs 0.067 mM insulin (0.2 mM disulfides), 25 °C
  speed of reduction compared with insulin: more rapid
[2]; 0 sec
  Absorbance Asample1: 1.004
  Absorbance Asample2: 0.982
  Absorbance Average1, 2: 0.993
[2]; 9 sec
  Absorbance Asample1: 1.004
  Absorbance Asample2: 0.980
  Absorbance Average1, 2: 0.992
[2]; 18 sec
  Absorbance Asample1: 1.004
  Absorbance Asample2: 0.981
  Absorbance Average1, 2: 0.992
[2]; 27 sec
  Absorbance Asample1: 1.003
  Absorbance Asample2: 0.980
  Absorbance Average1, 2: 0.991
[2]; 36 sec
  Absorbance Asample1: 1.002
  Absorbance Asample2: 0.978
  Absorbance Average1, 2: 0.990
[2]; 45 sec
  Absorbance Asample1: 1.000
  Absorbance Asample2: 0.979
  Absorbance Average1, 2: 0.989
[2]; 54 sec
  Absorbance Asample1: 1.000
  Absorbance Asample2: 0.977
  Absorbance Average1, 2: 0.988
[2]; 63 sec
  Absorbance Asample1: 0.999
  Absorbance Asample2: 0.977
  Absorbance Average1, 2: 0.988
[2]; 72 sec
  Absorbance Asample1: 0.999
  Absorbance Asample2: 0.976
  Absorbance Average1, 2: 0.987
[2]; 81 sec
  Absorbance Asample1: 0.998
  Absorbance Asample2: 0.973
  Absorbance Average1, 2: 0.985
[2]; 90 sec
  Absorbance Asample1: 0.997
  Absorbance Asample2: 0.974
  Absorbance Average1, 2: 0.985
[2]; 99 sec
  Absorbance Asample1: 0.996
  Absorbance Asample2: 0.972
  Absorbance Average1, 2: 0.984
[2]; 108 sec
  Absorbance Asample1: 0.996
  Absorbance Asample2: 0.971
  Absorbance Average1, 2: 0.983
[2]; 117 sec
  Absorbance Asample1: 0.995
  Absorbance Asample2: 0.971
  Absorbance Average1, 2: 0.983
[2]; 126 sec
  Absorbance Asample1: 0.994
  Absorbance Asample2: 0.970
  Absorbance Average1, 2: 0.982
[2]; 135 sec
  Absorbance Asample1: 0.992
  Absorbance Asample2: 0.968
  Absorbance Average1, 2: 0.980
[2]; 144 sec
  Absorbance Asample1: 0.991
  Absorbance Asample2: 0.967
  Absorbance Average1, 2: 0.979
[2]; 153 sec
  Absorbance Asample1: 0.990
  Absorbance Asample2: 0.966
  Absorbance Average1, 2: 0.978
[2]; 162 sec
  Absorbance Asample1: 0.990
  Absorbance Asample2: 0.966
  Absorbance Average1, 2: 0.978
[2]; 171 sec
  Absorbance Asample1: 0.989
  Absorbance Asample2: 0.964
  Absorbance Average1, 2: 0.977
[2]; 180 sec
  Absorbance Asample1: 0.989
  Absorbance Asample2: 0.965
  Absorbance Average1, 2: 0.977
[2]; 189 sec
  Absorbance Asample1: 0.989
  Absorbance Asample2: 0.964
  Absorbance Average1, 2: 0.977
[2]; 198 sec
  Absorbance Asample1: 0.988
  Absorbance Asample2: 0.962
  Absorbance Average1, 2: 0.975
[2]; 207 sec
  Absorbance Asample1: 0.986
  Absorbance Asample2: 0.961
  Absorbance Average1, 2: 0.974
[2]; 216 sec
  Absorbance Asample1: 0.987
  Absorbance Asample2: 0.960
  Absorbance Average1, 2: 0.974
[2]; 225 sec
  Absorbance Asample1: 0.985
  Absorbance Asample2: 0.959
  Absorbance Average1, 2: 0.972
[2]; 234 sec
  Absorbance Asample1: 0.984
  Absorbance Asample2: 0.957
  Absorbance Average1, 2: 0.971
[2]; 243 sec
  Absorbance Asample1: 0.984
  Absorbance Asample2: 0.955
  Absorbance Average1, 2: 0.970
[2]; 252 sec
  Absorbance Asample1: 0.982
  Absorbance Asample2: 0.954
  Absorbance Average1, 2: 0.968
[2]; 261 sec
  Absorbance Asample1: 0.982
  Absorbance Asample2: 0.952
  Absorbance Average1, 2: 0.967
[2]; 270 sec
  Absorbance Asample1: 0.980
  Absorbance Asample2: 0.952
  Absorbance Average1, 2: 0.966
[2]; 279 sec
  Absorbance Asample1: 0.981
  Absorbance Asample2: 0.951
  Absorbance Average1, 2: 0.966
[2]; 288 sec
  Absorbance Asample1: 0.979
  Absorbance Asample2: 0.949
  Absorbance Average1, 2: 0.964
[2]; 297 sec
  Absorbance Asample1: 0.978
  Absorbance Asample2: 0.949
  Absorbance Average1, 2: 0.963
[2]; decrease of NADPH absorbance over time in samples containing TrxR
  reduction of disulfide bond by the thioredoxin system: successful

From article PMC10607160 (International Journal of Molecular Sciences, 2023)
